Experimental data: ChEMBL document CHEMBL4406870, “Design, synthesis, and biological evaluation of 4-phenoxyquinoline derivatives as potent c-Met kinase inhibitor” (Bioorg Med Chem Lett, 2019)

Tests used:
A549 = assay: cells; conditions: Homo sapiens, A549, 72 h
Description: Cytotoxicity against human A549 cells assessed as reduction in cell viability incubated for 72 hrs by MTT assay

HT-29 = assay: cells; conditions: Homo sapiens, HT-29, 72 h
Description: Cytotoxicity against human HT-29 cells assessed as reduction in cell viability incubated for 72 hrs by MTT assay

NCI-H460 = assay: cells; conditions: Homo sapiens, NCI-H460, 72 h
Description: Cytotoxicity against human H460 cells assessed as reduction in cell viability incubated for 72 hrs by MTT assay

MKN-45 = assay: cells; conditions: Homo sapiens, MKN-45, 72 h
Description: Cytotoxicity against human MKN45 cells assessed as reduction in cell viability incubated for 72 hrs by MTT assay

U-87 MG = assay: cells; conditions: Homo sapiens, 72 h
Description: Cytotoxicity against human U87MG cells assessed as reduction in cell viability incubated for 72 hrs by MTT assay

[1] = biological target: Hepatocyte growth factor receptor (Homo sapiens, UniProt P08581); assay: Inhibition of cMET (unknown origin) using poly (Glu, Tyr) 4:1 as substrate incubated for 30 mins by HTRF assay
Chain of Hepatocyte growth factor receptor (P08581 whole entry): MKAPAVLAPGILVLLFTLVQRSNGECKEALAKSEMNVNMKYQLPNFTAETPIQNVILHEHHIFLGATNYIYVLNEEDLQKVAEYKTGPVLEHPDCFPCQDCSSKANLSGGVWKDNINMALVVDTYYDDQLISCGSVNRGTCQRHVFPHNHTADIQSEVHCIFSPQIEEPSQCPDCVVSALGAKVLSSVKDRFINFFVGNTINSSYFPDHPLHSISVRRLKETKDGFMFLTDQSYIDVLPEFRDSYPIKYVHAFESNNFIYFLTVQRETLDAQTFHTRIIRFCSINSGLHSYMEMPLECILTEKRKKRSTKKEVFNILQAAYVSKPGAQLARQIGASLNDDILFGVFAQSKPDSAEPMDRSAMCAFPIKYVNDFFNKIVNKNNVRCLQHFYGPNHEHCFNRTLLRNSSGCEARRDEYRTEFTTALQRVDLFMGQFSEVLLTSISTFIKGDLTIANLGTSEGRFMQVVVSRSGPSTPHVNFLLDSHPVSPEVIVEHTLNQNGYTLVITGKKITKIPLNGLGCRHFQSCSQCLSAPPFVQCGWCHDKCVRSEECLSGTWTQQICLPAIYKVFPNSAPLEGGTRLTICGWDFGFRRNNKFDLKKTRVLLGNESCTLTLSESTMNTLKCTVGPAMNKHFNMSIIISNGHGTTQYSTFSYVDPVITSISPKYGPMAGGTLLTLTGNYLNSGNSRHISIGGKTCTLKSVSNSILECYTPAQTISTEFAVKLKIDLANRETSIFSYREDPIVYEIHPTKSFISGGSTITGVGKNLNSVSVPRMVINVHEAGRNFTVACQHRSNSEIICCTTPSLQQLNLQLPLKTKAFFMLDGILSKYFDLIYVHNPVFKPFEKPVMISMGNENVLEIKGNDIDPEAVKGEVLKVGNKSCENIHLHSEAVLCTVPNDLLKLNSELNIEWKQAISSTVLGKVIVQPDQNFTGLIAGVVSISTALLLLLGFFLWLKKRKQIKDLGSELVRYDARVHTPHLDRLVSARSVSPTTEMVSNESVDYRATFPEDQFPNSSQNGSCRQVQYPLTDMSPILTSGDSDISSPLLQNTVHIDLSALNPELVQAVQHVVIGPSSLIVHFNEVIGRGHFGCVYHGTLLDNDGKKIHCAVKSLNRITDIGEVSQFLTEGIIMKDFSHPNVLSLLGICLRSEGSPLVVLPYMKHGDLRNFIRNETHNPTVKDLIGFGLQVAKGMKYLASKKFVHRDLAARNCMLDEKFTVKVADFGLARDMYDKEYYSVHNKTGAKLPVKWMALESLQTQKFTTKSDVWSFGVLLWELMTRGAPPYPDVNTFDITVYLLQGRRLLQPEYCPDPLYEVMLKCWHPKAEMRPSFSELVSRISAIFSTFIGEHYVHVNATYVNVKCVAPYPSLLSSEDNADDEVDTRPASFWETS

Row | Structure (SMILES) | IC50 (A549) [nM] | IC50 (HT-29) [nM] | IC50 (NCI-H460) [nM] | IC50 (MKN-45) [nM] | IC50 (U-87 MG) [nM] | IC50 [1] [nM]
1 | COc1cc2c(Oc3ccc(NC(=O)c4nc5ccccc5n(C5CCCC5)c4=O)cc3F)ccnc2cc1OCCCN1CCCCC1 | 4360 | 4190 | 3080 | 1170 | 5210 | –
2 | COc1cc2c(Oc3ccc(NC(=O)c4nc5ccccc5n(CCc5ccccc5)c4=O)cc3F)ccnc2cc1OCCCN1CCC(C)CC1 | 1920 | 1410 | 1070 | 650 | 2740 | –
3 | COc1cc2c(Oc3ccc(NC(=O)c4nc5ccccc5n(C5CCCC5)c4=O)cc3F)ccnc2cc1OCCCN1CCC(C)CC1 | 5790 | 4430 | 2150 | 3660 | 5390 | –
4 | COc1cc2c(Oc3ccc(NC(=O)c4nc5ccccc5n(CCc5ccccc5)c4=O)cc3F)ccnc2cc1OCCCN1CCN(C)CC1 | 1040 | 960 | 450 | 310 | 1260 | –
5 | COc1ccc(CCn2c(=O)c(C(=O)Nc3ccc(Oc4ccnc5cc(OCCCN6CCC(C)CC6)c(OC)cc45)c(F)c3)nc3ccccc32)cc1 | 550 | 1220 | 510 | 410 | 2270 | –
6 | COc1cc2c(Oc3ccc(NC(=O)c4nc5ccccc5n(Cc5ccc(F)cc5)c4=O)cc3F)ccnc2cc1OCCCN1CCCCC1 | 1290 | 720 | 870 | 220 | 2120 | –
7 | COc1cc2c(Oc3ccc(NC(=O)c4nc5ccccc5n(Cc5ccc(F)cc5)c4=O)cc3F)ccnc2cc1OCCCN1CCC(C)CC1 | 480 | 380 | 620 | 250 | 1960 | 2.56
8 | COc1cc2c(Oc3ccc(NC(=O)c4nc5ccccc5n(Cc5ccc(F)cc5)c4=O)cc3F)ccnc2cc1OCCCN1CCN(C)CC1 | 2770 | 1830 | 2240 | 230 | 1730 | –
9 | COc1ccc(CCn2c(=O)c(C(=O)Nc3ccc(Oc4ccnc5cc(OCCCN6CCOCC6)c(OC)cc45)c(F)c3)nc3ccccc32)cc1 | 6230 | 4940 | 2330 | 230 | 12800 | –
10 | COc1cc2c(Oc3ccc(NC(=O)c4nc5ccccc5n(CCc5ccccc5)c4=O)cc3F)ccnc2cc1OCCCN1CCOCC1 | 910 | 350 | 1590 | 780 | 1350 | –
